Test systems include HOP-92 NSCLC; MOLT-4 leukemia; M14 melanoma; HOP-62 NSCLC; SK-MEL-5 melanoma; SK-OV-3 ovarian; OVCAR-4 ovarian; ACHN renal; HCC-2998 colon; SK-MEL-28 melanoma.
Common to all, as to experiment: NCI tumour cell line growth inhibition, 48 h

Structures are written as SMILES.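 The compound was tested at five concentrations on cells cultured in 96-well plates, with a 48-hour exposure period. Here, GI50 denotes the concentration required for 50% inhibition of growth. TGI: concentration producing complete growth inhibition.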

Turning to `CCCn1c(N)c(C(=O)CNc2ccc(I)cc2)c(=O)[nH]c1=O`, the GI50 is 7.86 µM in the assay on HOP-92 NSCLC; 0.422 µM in the assay on MOLT-4 leukemia; above 100 µM in the assay with M14 melanoma; 9.98 µM with HOP-62 NSCLC; 0.861 µM in the assay with SK-MEL-5 melanoma; above 100 µM with SK-OV-3 ovarian. In addition, the GI50 with OVCAR-4 ovarian is above 100 µM; in the assay with ACHN renal, 8.69 µM; in the assay on HCC-2998 colon, 4.23 µM; in the assay with SK-MEL-28 melanoma, above 100 µM. Further, the TGI with HOP-92 NSCLC was above 24.3 µM; in the assay on MOLT-4 leukemia, above 100 µM; in the assay on M14 melanoma it was above 100 µM; in the assay with HOP-62 NSCLC it was above 100 µM; in the assay with SK-MEL-5 melanoma it was above 100 µM; in the assay with SK-OV-3 ovarian, above 100 µM. Besides, the TGI with OVCAR-4 ovarian is above 100 µM; with ACHN renal it was above 100 µM; with HCC-2998 colon, above 90.6 µM; in the assay with SK-MEL-28 melanoma it was above 100 µM.

Consider `CC[C@H](NC(=O)[C@H](CS(=O)(=O)CC1CC1)N[C@@H](c1ccc(F)cc1)C(F)(F)F)C(=O)C(=O)NC1CC1`, for which the GI50 is 98.7 µM with HOP-92 NSCLC; 32.8 µM with MOLT-4 leukemia; above 100 µM in the assay on M14 melanoma; above 100 µM in the assay on HOP-62 NSCLC; above 100 µM in the assay on SK-MEL-5 melanoma; above 100 µM in the assay on SK-OV-3 ovarian. For the same compound, the GI50 is 82.9 µM with OVCAR-4 ovarian, above 100 µM in the assay with ACHN renal, above 100 µM in the assay on HCC-2998 colon and above 100 µM with SK-MEL-28 melanoma. The TGI in the assay on HOP-92 NSCLC, with MOLT-4 leukemia, with M14 melanoma, with HOP-62 NSCLC, in the assay on SK-MEL-5 melanoma and with SK-OV-3 ovarian was above 100 µM throughout. Further, the TGI in the assay with OVCAR-4 ovarian, in the assay on ACHN renal, in the assay with HCC-2998 colon and in the assay on SK-MEL-28 melanoma was above 100 µM in each case.

On to `CC(=O)O[C@H]1C=CC23OC(=O)[C@]1(C)[C@H]2[C@H](C(=O)O)C12CC(=O)[C@@](CO)(CC[C@H]13)C2`, for which the TGI in the assay with HOP-92 NSCLC, in the assay on MOLT-4 leukemia, with M14 melanoma, in the assay on HOP-62 NSCLC, with SK-MEL-5 melanoma and with SK-OV-3 ovarian was above 100 µM each time. The TGI in the assay on OVCAR-4 ovarian, with ACHN renal, in the assay on HCC-2998 colon and in the assay with SK-MEL-28 melanoma was above 100 µM each time.

On to `C=CCCC(=O)N1C=CC(=O)[C@H](O)[C@@H]1/C=C/c1ccccc1`, for which the GI50 in the assay with HOP-92 NSCLC was 30.8 µM; in the assay with MOLT-4 leukemia it was 15.6 µM; in the assay with M14 melanoma, 5.17 µM; with HOP-62 NSCLC it was 13.3 µM; in the assay on SK-MEL-5 melanoma, 3.93 µM; in the assay with SK-OV-3 ovarian, 18.6 µM. Besides, the GI50 in the assay on OVCAR-4 ovarian is 5.67 µM; in the assay on ACHN renal, 5.27 µM; in the assay on HCC-2998 colon it was 11.6 µM; with SK-MEL-28 melanoma, 17.4 µM. Besides, the TGI was above 32.5 µM in the assay with HOP-92 NSCLC; above 32.5 µM in the assay with MOLT-4 leukemia; 16.8 µM with M14 melanoma; above 32.5 µM in the assay with HOP-62 NSCLC; 12.3 µM in the assay on SK-MEL-5 melanoma; above 32.5 µM with SK-OV-3 ovarian. The TGI in the assay with OVCAR-4 ovarian, in the assay on ACHN renal, with HCC-2998 colon and with SK-MEL-28 melanoma was above 32.5 µM throughout.

`Cc1sc2ncn(Cc3ccc(Cl)c(Cl)c3)c(=O)c2c1C`: the GI50 with HOP-92 NSCLC is 18.4 µM; in the assay on MOLT-4 leukemia it was 79.3 µM; in the assay on M14 melanoma, 24.4 µM; with HOP-62 NSCLC it was 14 µM; in the assay with SK-MEL-5 melanoma it was 54.4 µM; in the assay on SK-OV-3 ovarian, 46.8 µM. Besides, the GI50 is 28.2 µM in the assay on OVCAR-4 ovarian, 12.4 µM in the assay on ACHN renal, 7.39 µM in the assay on HCC-2998 colon and 77.9 µM in the assay with SK-MEL-28 melanoma. Further, the TGI in the assay with HOP-92 NSCLC is 73.7 µM; with MOLT-4 leukemia, above 100 µM; in the assay with M14 melanoma, 64 µM; with HOP-62 NSCLC it was 36.7 µM; in the assay on SK-MEL-5 melanoma, above 100 µM; in the assay on SK-OV-3 ovarian it was above 100 µM. Also, the TGI in the assay on OVCAR-4 ovarian is 68.9 µM; in the assay with ACHN renal, above 100 µM; in the assay with HCC-2998 colon, 30.1 µM; in the assay with SK-MEL-28 melanoma it was above 100 µM.

As to `CC(C)(C)C(=O)OCc1nc2cc3c(cc2c(=O)[nH]1)CCC3=O`, the GI50 in the assay on HOP-92 NSCLC, in the assay on MOLT-4 leukemia, in the assay on M14 melanoma, in the assay on HOP-62 NSCLC, with SK-MEL-5 melanoma and with SK-OV-3 ovarian was above 100 µM in each case. The GI50 in the assay on OVCAR-4 ovarian, with ACHN renal, in the assay on HCC-2998 colon and in the assay on SK-MEL-28 melanoma was above 100 µM each time. In addition, the TGI in the assay with HOP-92 NSCLC, in the assay on MOLT-4 leukemia, in the assay on M14 melanoma, in the assay with HOP-62 NSCLC, in the assay with SK-MEL-5 melanoma and in the assay with SK-OV-3 ovarian was above 100 µM in each case. The TGI in the assay with OVCAR-4 ovarian, in the assay on ACHN renal, in the assay with HCC-2998 colon and with SK-MEL-28 melanoma was above 100 µM each time.

Regarding `N=C(N)SCCc1ccccn1`, the TGI with HOP-92 NSCLC, with MOLT-4 leukemia, in the assay on M14 melanoma, in the assay on HOP-62 NSCLC, in the assay with SK-MEL-5 melanoma and in the assay on SK-OV-3 ovarian was above 100 µM each time. Besides, the TGI with OVCAR-4 ovarian, with ACHN renal, with HCC-2998 colon and in the assay on SK-MEL-28 melanoma was above 100 µM each time.

Take `CCOc1cc(C(C)(C)C)ccc1C1=N[C@@](C)(c2ccc(Cl)cc2)[C@@](C)(c2ccc(Cl)cc2)N1C(=O)N1CCN(CCS(C)(=O)=O)CC1`: the GI50 is 2.28 µM in the assay on HOP-92 NSCLC; 0.751 µM with MOLT-4 leukemia; 3.75 µM with M14 melanoma; 2.86 µM in the assay with HOP-62 NSCLC; 1.38 µM in the assay with SK-MEL-5 melanoma; 4.32 µM in the assay on SK-OV-3 ovarian. For the same compound, the GI50 in the assay with OVCAR-4 ovarian is 2.68 µM; with ACHN renal it was 0.45 µM; with HCC-2998 colon it was 2.28 µM; with SK-MEL-28 melanoma it was 3.75 µM. The TGI in the assay on HOP-92 NSCLC is 8.82 µM; in the assay with MOLT-4 leukemia, 3.96 µM; in the assay on M14 melanoma, 14.6 µM; in the assay on HOP-62 NSCLC, 8.57 µM; with SK-MEL-5 melanoma, 2.73 µM; in the assay with SK-OV-3 ovarian, 16.1 µM. Moreover, the TGI turned out to be 38.3 µM with OVCAR-4 ovarian, 2.56 µM in the assay with ACHN renal, 4.98 µM in the assay with HCC-2998 colon and 14.3 µM in the assay on SK-MEL-28 melanoma.

For the origin of these results see PubChem BioAssay (NCI).
